Each compound was assayed against T1, ALK (baculovirus expressed human ALK kinase domain F1098-K1410) (Homo sapiens, UniProt Q9UM73) (assay: biochemical). Conditions: 1 μM ATP, 4 μM poly-AEKY, 12 nM ALK, 2 hours at ambient temperature; read-out: ALK IC50.
T1 construct: human ALK kinase domain F1098-K1410; made in house
Method in brief: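 Inhibitors were tested at 10 concentrations, and IC50 was derived from a sigmoidal fit (Min, Max, Hill slope). Kinase activity was measured as percent ATP left after a 2 h reaction at room temperature, detected by luciferase-luciferin chemiluminescence. The ATP level was set close to KM for the ALK kinase domain F1098-K1410.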

T1 sequence (Q9UM73 1098-1410): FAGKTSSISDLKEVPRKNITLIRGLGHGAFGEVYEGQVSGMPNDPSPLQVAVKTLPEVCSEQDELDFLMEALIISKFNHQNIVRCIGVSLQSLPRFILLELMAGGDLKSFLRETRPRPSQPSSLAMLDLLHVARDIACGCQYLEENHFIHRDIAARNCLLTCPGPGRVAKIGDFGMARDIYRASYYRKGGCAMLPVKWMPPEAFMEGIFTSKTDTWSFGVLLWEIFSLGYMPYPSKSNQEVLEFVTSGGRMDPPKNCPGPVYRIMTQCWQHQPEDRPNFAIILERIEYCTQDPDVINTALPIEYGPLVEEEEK

SMILES	IC50 [nM]
CN1CCCC1CCNC(=O)c1csc(CNC(=O)COc2ccc(OC(F)(F)F)cc2)n1 (centres unmarked) [Entry 247, N-[2-(1-methylpyrrolidin-2-yl)ethyl]-2-({[({4-[(trifluoromethyl)oxy]phenyl}oxy)acetyl]amino}methyl)-1,3-thiazole-4-carboxamide]	500 to 2000
CCCCC(CC)CNC(=O)c1csc(CNC(=O)COc2ccc(OC(F)(F)F)cc2)n1 (centres unmarked) [Entry 200, N-(2-ethylhexyl)-2-({[({4-[(trifluoromethyl)oxy]phenyl}oxy)acetyl]amino}methyl)-1,3-thiazole-4-carboxamide]	50 to 500
Cc1ccc(NC(=O)NCc2nc(C(=O)NCCc3cccc(Cl)c3)cs2)cc1 [Entry 168, N-[2-(3-chlorophenyl)ethyl]-2-[({[(4-methylphenyl)amino]carbonyl}amino)methyl]-1,3-thiazole-4-carboxamide]	50 to 500
O=C(COc1ccc(OC(F)(F)F)cc1)NCc1nc(C(=O)NCC2CCCO2)cs1 (centres unmarked) [Entry 265, N-(tetrahydrofuran-2-ylmethyl)-2-({[({4-[(trifluoromethyl)oxy]phenyl}oxy)acetyl]amino}methyl)-1,3-thiazole-4-carboxamide]	500 to 2000
O=C(COc1ccc(Cl)cc1)NCc1nc(C(=O)NCCc2ccccc2F)cs1 [Entry 215, 2-[({[(4-chlorophenyl)oxy]acetyl}amino)methyl]-N-[2-(2-fluorophenyl)ethyl]-1,3-thiazole-4-carboxamide]	50 to 500
COc1ccc(OCCNC(=O)c2csc(CNC(=O)COc3ccc(OC(F)(F)F)cc3)n2)cc1 [Entry 81, N-(2-{[4-(methyloxy)phenyl]oxy}ethyl)-2-({[({4-[(trifluoromethyl)oxy]phenyl}oxy)acetyl]amino}methyl)-1,3-thiazole-4-carboxamide]	50 to 500
O=C(COc1ccc(OC(F)(F)F)cc1)NCc1nc(C(=O)N2CCC3CCCCC3C2)cs1 (centres unmarked) [Entry 294, N-{[4-(octahydroisoquinolin-2(1H)-ylcarbonyl)-1,3-thiazol-2-yl]methyl}-2-({4-[(trifluoromethyl)oxy]phenyl}oxy)acetamide]	500 to 2000
CCN(CCNC(=O)c1csc(CNC(=O)COc2ccc(OC(F)(F)F)cc2)n1)c1cccc(C)c1 [Entry 124, N-{2-[ethyl(3-methylphenyl)amino]ethyl}-2-({[({4-[(trifluoromethyl)oxy]phenyl}oxy)acetyl]amino}methyl)-1,3-thiazole-4-carboxamide]	50 to 500
CCN(CC)C1CCN(C(=O)c2csc(CNC(=O)COc3ccc(OC(F)(F)F)cc3)n2)C1 (centres unmarked) [Entry 311, N-[(4-{[3-(diethylamino)pyrrolidin-1-yl]carbonyl}-1,3-thiazol-2-yl)methyl]-2-({4-[(trifluoromethyl)oxy]phenyl}oxy)acetamide]	> 2000
COc1ccccc1CNC(=O)c1csc(CN)n1 [Entry 304, 2-(aminomethyl)-N-{[2-(methyloxy)phenyl]methyl}-1,3-thiazole-4-carboxamide]	> 2000
CN(C)c1ccc(CNC(=O)c2csc(CNC(=O)COc3ccc(OC(F)(F)F)cc3)n2)cc1 [Entry 237, N-{[4-(dimethylamino)phenyl]methyl}-2-({[({4-[(trifluoromethyl)oxy]phenyl}oxy)acetyl]amino}methyl)-1,3-thiazole-4-carboxamide]	500 to 2000
Cc1onc(-c2ccccc2)c1CNC(=O)c1csc(CNC(=O)COc2ccc(OC(F)(F)F)cc2)n1 [Entry 135, N-[(5-methyl-3-phenylisoxazol-4-yl)methyl]-2-({[({4-[(trifluoromethyl)oxy]phenyl}oxy)acetyl]amino}methyl)-1,3-thiazole-4-carboxamide]	50 to 500
CC(C)CCCC(C)NC(=O)c1csc(CNC(=O)COc2ccc(OC(F)(F)F)cc2)n1 (centres unmarked) [Entry 212, N-(1,5-dimethylhexyl)-2-({[({4-[(trifluoromethyl)oxy]phenyl}oxy)acetyl]amino}methyl)-1,3-thiazole-4-carboxamide]	50 to 500
CCc1ccc(NC(=O)NCc2nc(C(=O)NCc3ccccc3OC)cs2)cc1 [Entry 110, 2-[({[(4-ethylphenyl)amino]carbonyl}amino)methyl]-N-{[2-(methyloxy)phenyl]methyl}-1,3-thiazole-4-carboxamide]	50 to 500
CCC(C)CNC(=O)c1csc(CNC(=O)COc2ccc(OC(F)(F)F)cc2)n1 (centres unmarked) [Entry 210, N-(2-methylbutyl)-2-({[({4-[(trifluoromethyl)oxy]phenyl}oxy)acetyl]amino}methyl)-1,3-thiazole-4-carboxamide]	50 to 500
C[C@@H]1CN(C(=O)c2csc(CNC(=O)COc3ccc(OC(F)(F)F)cc3)n2)C[C@H](C)O1 [Entry 255, N-[(4-{[(2R,6S)-2,6-dimethylmorpholin-4-yl]carbonyl}-1,3-thiazol-2-yl)methyl]-2-({4-[(trifluoromethyl)oxy]phenyl}oxy)acetamide]	500 to 2000
COc1ccc(OC)c(CCNC(=O)c2csc(CNC(=O)COc3ccc(OC(F)(F)F)cc3)n2)c1 [Entry 137, N-{2-[2,5-bis(methyloxy)phenyl]ethyl}-2-({[({4-[(trifluoromethyl)oxy]phenyl}oxy)acetyl]amino}methyl)-1,3-thiazole-4-carboxamide]	50 to 500
O=C(COc1ccc(OC(F)(F)F)cc1)NCc1nc(C(=O)NCCC(c2ccccc2)c2ccccc2)cs1 [Entry 260, N-(3,3-diphenylpropyl)-2-({[({4-[(trifluoromethyl)oxy]phenyl}oxy)acetyl]amino}methyl)-1,3-thiazole-4-carboxamide]	500 to 2000
O=C(COc1ccc(OC(F)(F)F)cc1)NCc1nc(C(=O)NCc2cccc(C(F)(F)F)c2)cs1 [Entry 156, 2-({[({4-[(trifluoromethyl)oxy]phenyl}oxy)acetyl]amino}methyl)-N-{[3-(trifluoromethyl)phenyl]methyl}-1,3-thiazole-4-carboxamide]	50 to 500
Cc1ccc(Cl)cc1CNC(=O)c1csc(CNC(=O)COc2ccc(OC(F)(F)F)cc2)n1 [Entry 39, N-[(5-chloro-2-methylphenyl)methyl]-2-({[({4-[(trifluoromethyl)oxy]phenyl}oxy)acetyl]amino}methyl)-1,3-thiazole-4-carboxamide]	50 to 500

Now from value to compound:

IC50 [nM]	SMILES
500 to 2000	O=C(COc1ccc(OC(F)(F)F)cc1)NCc1nc(C(=O)NCCc2ccccn2)co1 [Entry 296, N-(2-pyridin-2-ylethyl)-2-({[({4-[(trifluoromethyl)oxy]phenyl}oxy)acetyl]amino}methyl)-1,3-oxazole-4-carboxamide]
500 to 2000	Cc1ccc(CCNC(=O)c2coc(CNC(=O)COc3ccc(OC(F)(F)F)cc3)n2)cc1 [Entry 225, N-[2-(4-methylphenyl)ethyl]-2-({[({4-[(trifluoromethyl)oxy]phenyl}oxy)acetyl]amino}methyl)-1,3-oxazole-4-carboxamide]
50 to 500	O=C(COc1ccc(OC(F)(F)F)cc1)NCc1nc(C(=O)NCC2c3ccccc3CCc3ccccc32)co1 [Entry 38, N-(10,11-dihydro-5H-dibenzo[a,d]cyclohepten-5-ylmethyl)-2-({[({4-[(trifluoromethyl)oxy]phenyl}oxy)acetyl]amino}methyl)-1,3-oxazole-4-carboxamide]
50 to 500	O=C(COc1ccc(OC(F)(F)F)cc1)NCc1nc(C(=O)NCCc2ccc(Cl)cc2)cs1 [Entry 83, N-[2-(4-chlorophenyl)ethyl]-2-({[({4-[(trifluoromethyl)oxy]phenyl}oxy)acetyl]amino}methyl)-1,3-thiazole-4-carboxamide]
500 to 2000	CC1CCCCC1NC(=O)c1coc(CNC(=O)COc2ccc(OC(F)(F)F)cc2)n1 (centres unmarked) [Entry 257, N-(2-methylcyclohexyl)-2-({[({4-[(trifluoromethyl)oxy]phenyl}oxy)acetyl]amino}methyl)-1,3-oxazole-4-carboxamide]
< 50	O=C(COc1ccc(OC(F)(F)F)cc1)NCc1nc(C(=O)NCCc2cccs2)cs1 [Entry 19, N-[2-(2-thienyl)ethyl]-2-({[({4-[(trifluoromethyl)oxy]phenyl}oxy)acetyl]amino}methyl)-1,3-thiazole-4-carboxamide]
50 to 500	O=C(COc1ccc(OC(F)(F)F)cc1)NCc1nc(C(=O)NCCc2cccs2)co1 [Entry 159, N-[2-(2-thienyl)ethyl]-2-({[({4-[(trifluoromethyl)oxy]phenyl}oxy)acetyl]amino}methyl)-1,3-oxazole-4-carboxamide]
50 to 500	O=C(COc1ccc(OC(F)(F)F)cc1)NCc1nc(C(=O)NCCc2ccc(Cl)c(Cl)c2)cs1 [Entry 44, N-[2-(3,4-dichlorophenyl)ethyl]-2-({[({4-[(trifluoromethyl)oxy]phenyl}oxy)acetyl]amino}methyl)-1,3-thiazole-4-carboxamide]
50 to 500	O=C(COc1ccc(OC(F)(F)F)cc1)NCc1nc(C(=O)NCc2ccccn2)cs1 [Entry 190, N-(pyridin-2-ylmethyl)-2-({[({4-[(trifluoromethyl)oxy]phenyl}oxy)acetyl]amino}methyl)-1,3-thiazole-4-carboxamide]
< 50	C[C@@H](CNC(=O)c1csc(CNC(=O)COc2ccc(OC(F)(F)F)cc2)n1)c1ccccc1 [Entry 6, N-[(2R)-2-phenylpropyl]-2-({[({4-[(trifluoromethyl)oxy]phenyl}oxy)acetyl]amino}methyl)-1,3-thiazole-4-carboxamide]
500 to 2000	COc1cccc(CNC(=O)c2coc(CNC(=O)COc3ccc(OC(F)(F)F)cc3)n2)c1OC [Entry 223, N-{[2,3-bis(methyloxy)phenyl]methyl}-2-({[({4-[(trifluoromethyl)oxy]phenyl}oxy)acetyl]amino}methyl)-1,3-oxazole-4-carboxamide]
50 to 500	COc1ccc(CCNC(=O)c2coc(CNC(=O)COc3ccc(OC(F)(F)F)cc3)n2)cc1OC [Entry 155, N-{2-[3,4-bis(methyloxy)phenyl]ethyl}-2-({[({4-[(trifluoromethyl)oxy]phenyl}oxy)acetyl]amino}methyl)-1,3-oxazole-4-carboxamide]

— patent publication US7973061B2, “Anaplastic lymphoma kinase modulators and methods of use” (Exelixis, Inc., priority 2004, dated 2011)
